Laboratory results: ChEMBL document CHEMBL5608201, “Discovery and optimization of thiazole-based quorum sensing inhibitors as potent blockers of Pseudomonas aeruginosa pathogenicity” (Eur J Med Chem, 2024)
Values after ≈ are worked out from the molar mass of the structure shown.

Tests used:
[1] = biological target: T1, Transcriptional regulator MvfR (Pseudomonas aeruginosa PA14, UniProt A0A072ZLE6); assay: Inverse agonist activity at Pseudomonas aeruginosa PqsR extracted from Escherichia coli Dh5alpha co-expressing lacZ incubated with test compound in presence of pseudomonas quinolone signal (PQS) by ONPG/heterologous reporter gene assay
T1 sequence (A0A072ZLE6 whole entry): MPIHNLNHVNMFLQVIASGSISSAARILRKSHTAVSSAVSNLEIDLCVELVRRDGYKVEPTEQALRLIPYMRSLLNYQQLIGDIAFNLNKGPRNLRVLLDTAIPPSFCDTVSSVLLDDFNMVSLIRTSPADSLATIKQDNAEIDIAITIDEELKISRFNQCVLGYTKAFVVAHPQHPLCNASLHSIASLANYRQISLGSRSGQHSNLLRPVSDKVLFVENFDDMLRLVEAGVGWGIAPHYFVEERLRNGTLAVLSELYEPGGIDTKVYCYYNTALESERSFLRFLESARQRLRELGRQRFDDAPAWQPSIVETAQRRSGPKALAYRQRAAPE

[2] = system: Pseudomonas aeruginosa; assay: Antivirulence activity against Pseudomonas aeruginosa PA14 assessed as inhibition of pyocyanin biosynthesis incubated for 16 hrs under agitation by photometric analysis; format: functional, organism-based; conditions: PA14, 16 h
[3] = Metabolic stability in mouse liver microsomes assessed as half life at 1 uM measured after 30 mins by HPLC-MS/MS analysis; format: ADME, Microsome
[4] = Kinetic aqueous solubility of the compound in PBS buffer incubated for 5 mins by turbidimetric aqueous solubility assay; format: physicochemical; conditions: read-out: Kinetic_solubility
[5] = Lipophilicity, log D of the compound; format: physicochemical; conditions: octanol/water
[6] = Cytotoxicity against human HepG2 cells assessed as viable cells; format: toxicity, cell-based; conditions: read-out: LD50 (the source's name)
[7] = Metabolic stability in human liver S9 fraction assessed as half life; format: ADME, subcellular
[8] = Cytotoxicity against human HepG2 cells assessed as viable cells at 25 uM relative to control; format: toxicity, cell-based; conditions: read-out: Activity
[9] = Cytotoxicity against human HEK293 cells assessed as viable cells; format: toxicity, cell-based; conditions: read-out: LD50 (the source's name)
[10] = Cytotoxicity against human HEK293 cells assessed as viable cells at 50 uM relative to control; format: toxicity, cell-based; conditions: read-out: Activity
[11] = biological target: Voltage-gated inwardly rectifying potassium channel KCNH2 (Homo sapiens, UniProt Q12809); assay: Inhibition of hERG; format: toxicity
Chain of Voltage-gated inwardly rectifying potassium channel KCNH2 (Q12809 whole entry): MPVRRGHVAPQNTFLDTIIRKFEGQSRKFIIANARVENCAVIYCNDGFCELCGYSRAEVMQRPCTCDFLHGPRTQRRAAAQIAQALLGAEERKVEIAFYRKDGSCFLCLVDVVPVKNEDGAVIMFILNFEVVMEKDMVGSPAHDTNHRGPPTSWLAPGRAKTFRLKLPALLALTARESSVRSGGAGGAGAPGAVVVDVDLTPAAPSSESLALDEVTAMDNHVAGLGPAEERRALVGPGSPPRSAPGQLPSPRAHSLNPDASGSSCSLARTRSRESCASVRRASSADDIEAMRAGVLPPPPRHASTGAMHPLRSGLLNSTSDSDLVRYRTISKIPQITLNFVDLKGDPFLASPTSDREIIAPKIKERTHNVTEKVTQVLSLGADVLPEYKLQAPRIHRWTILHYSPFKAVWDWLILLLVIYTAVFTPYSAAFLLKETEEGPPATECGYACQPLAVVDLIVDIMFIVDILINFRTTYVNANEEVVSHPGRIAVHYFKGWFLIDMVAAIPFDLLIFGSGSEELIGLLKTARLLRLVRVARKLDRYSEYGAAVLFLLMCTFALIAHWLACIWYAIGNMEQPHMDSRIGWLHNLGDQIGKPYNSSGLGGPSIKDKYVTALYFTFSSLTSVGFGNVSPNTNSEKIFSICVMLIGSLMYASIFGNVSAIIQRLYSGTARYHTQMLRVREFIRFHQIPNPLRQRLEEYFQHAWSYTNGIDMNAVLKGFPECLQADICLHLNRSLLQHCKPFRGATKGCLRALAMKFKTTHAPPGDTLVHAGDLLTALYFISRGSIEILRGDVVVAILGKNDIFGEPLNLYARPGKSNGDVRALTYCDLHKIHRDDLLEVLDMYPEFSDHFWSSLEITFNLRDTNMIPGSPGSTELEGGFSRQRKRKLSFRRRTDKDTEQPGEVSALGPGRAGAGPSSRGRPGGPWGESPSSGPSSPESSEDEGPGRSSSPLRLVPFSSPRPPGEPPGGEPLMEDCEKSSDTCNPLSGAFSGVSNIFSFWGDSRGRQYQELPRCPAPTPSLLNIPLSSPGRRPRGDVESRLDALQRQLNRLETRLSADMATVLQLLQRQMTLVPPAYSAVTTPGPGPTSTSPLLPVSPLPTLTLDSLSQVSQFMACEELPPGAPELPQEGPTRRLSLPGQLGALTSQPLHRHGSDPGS

[12] = Plasma protein binding in human; format: ADME, cell-free; conditions: read-out: PPB
[13] = Plasma protein binding in mouse; format: ADME, cell-free; conditions: read-out: PPB
[14] = biological target: Cytochrome P450 3A4 (Homo sapiens, UniProt P08684); assay: Inhibition of CYP3A4 (unknown origin); format: ADME
Chain of Cytochrome P450 3A4 (P08684 whole entry): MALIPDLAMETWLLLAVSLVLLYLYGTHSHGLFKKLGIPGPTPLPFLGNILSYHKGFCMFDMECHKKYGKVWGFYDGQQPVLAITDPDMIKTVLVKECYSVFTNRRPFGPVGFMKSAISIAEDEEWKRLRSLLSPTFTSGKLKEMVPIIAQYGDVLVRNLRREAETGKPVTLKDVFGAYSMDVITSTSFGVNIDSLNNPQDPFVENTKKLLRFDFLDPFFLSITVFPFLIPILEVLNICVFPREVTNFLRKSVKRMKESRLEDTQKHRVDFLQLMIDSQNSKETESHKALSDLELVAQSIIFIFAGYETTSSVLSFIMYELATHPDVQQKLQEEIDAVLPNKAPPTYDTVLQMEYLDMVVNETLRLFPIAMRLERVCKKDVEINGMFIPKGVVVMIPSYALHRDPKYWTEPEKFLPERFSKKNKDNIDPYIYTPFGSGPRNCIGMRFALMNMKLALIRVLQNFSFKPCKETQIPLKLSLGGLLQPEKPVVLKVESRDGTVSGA

[15] = biological target: Cytochrome P450 2D6 (Homo sapiens, UniProt P10635); assay: Inhibition of CYP2D6 (unknown origin); format: ADME
Chain of Cytochrome P450 2D6 (P10635 whole entry): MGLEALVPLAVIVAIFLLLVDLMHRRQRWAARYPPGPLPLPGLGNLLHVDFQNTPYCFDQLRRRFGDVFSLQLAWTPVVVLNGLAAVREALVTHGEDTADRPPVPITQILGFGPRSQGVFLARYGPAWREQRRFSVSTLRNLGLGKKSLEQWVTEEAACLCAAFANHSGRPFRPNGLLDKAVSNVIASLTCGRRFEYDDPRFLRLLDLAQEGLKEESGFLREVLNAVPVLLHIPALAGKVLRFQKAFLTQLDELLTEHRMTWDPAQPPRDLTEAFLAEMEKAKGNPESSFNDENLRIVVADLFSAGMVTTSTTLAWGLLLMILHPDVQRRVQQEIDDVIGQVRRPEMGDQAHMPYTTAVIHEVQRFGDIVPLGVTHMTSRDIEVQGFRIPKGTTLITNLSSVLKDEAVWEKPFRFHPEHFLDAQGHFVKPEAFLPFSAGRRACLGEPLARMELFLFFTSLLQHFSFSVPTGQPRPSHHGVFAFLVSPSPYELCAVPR

[16] = biological target: T2, CYP1A (Homo sapiens, UniProt P04798+P05177); assay: Inhibition of CYP1A (unknown origin); format: ADME, protein assay
T2 sequence (P04798 whole entry): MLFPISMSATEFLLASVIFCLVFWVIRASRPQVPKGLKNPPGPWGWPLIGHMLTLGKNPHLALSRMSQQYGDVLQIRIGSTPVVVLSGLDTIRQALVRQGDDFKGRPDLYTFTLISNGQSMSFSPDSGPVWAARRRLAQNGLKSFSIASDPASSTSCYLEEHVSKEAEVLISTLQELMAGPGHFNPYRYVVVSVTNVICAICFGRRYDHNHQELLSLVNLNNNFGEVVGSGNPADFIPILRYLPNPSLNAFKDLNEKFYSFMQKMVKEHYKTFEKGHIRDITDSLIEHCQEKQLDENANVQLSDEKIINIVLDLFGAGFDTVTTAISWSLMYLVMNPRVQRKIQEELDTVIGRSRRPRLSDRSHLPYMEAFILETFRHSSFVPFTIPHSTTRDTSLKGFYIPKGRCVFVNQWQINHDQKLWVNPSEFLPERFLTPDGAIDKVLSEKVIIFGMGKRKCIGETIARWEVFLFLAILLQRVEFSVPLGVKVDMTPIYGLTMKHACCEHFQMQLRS
T2 sequence (P05177 whole entry): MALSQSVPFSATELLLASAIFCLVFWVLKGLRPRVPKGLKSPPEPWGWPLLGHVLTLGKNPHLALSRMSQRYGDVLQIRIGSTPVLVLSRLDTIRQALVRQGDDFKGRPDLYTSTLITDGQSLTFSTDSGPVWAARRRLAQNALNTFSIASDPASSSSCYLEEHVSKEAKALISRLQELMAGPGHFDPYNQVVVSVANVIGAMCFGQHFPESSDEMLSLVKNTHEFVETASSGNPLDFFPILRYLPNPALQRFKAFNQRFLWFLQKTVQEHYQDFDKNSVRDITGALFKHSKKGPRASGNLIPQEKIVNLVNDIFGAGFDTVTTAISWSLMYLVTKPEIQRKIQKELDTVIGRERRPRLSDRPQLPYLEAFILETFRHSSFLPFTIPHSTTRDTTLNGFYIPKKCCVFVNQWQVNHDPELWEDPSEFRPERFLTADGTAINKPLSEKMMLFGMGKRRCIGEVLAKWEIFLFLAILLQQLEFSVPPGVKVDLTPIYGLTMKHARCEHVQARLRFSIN

[17] = biological target: Cytochrome P450 2C9 (Homo sapiens, UniProt P11712); assay: Inhibition of CYP2C9 (unknown origin); format: ADME
Chain of Cytochrome P450 2C9 (P11712 whole entry): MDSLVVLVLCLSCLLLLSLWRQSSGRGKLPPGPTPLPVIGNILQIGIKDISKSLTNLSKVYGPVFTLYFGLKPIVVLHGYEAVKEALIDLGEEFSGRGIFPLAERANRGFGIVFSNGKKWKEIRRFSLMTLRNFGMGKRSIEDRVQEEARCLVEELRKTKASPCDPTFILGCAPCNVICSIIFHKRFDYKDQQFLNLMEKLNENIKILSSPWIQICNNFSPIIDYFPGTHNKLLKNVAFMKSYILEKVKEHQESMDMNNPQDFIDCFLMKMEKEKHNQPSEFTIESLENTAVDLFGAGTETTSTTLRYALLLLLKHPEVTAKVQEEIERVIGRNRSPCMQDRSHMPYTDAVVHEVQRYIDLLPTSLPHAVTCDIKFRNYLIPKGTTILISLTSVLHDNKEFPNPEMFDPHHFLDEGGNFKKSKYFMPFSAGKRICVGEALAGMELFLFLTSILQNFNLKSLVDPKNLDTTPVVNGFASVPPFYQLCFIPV

[18] = biological target: Cytochrome P450 2C19 (Homo sapiens, UniProt P33261); assay: Inhibition of CYP2C19 (unknown origin); format: ADME
Chain of Cytochrome P450 2C19 (P33261 whole entry): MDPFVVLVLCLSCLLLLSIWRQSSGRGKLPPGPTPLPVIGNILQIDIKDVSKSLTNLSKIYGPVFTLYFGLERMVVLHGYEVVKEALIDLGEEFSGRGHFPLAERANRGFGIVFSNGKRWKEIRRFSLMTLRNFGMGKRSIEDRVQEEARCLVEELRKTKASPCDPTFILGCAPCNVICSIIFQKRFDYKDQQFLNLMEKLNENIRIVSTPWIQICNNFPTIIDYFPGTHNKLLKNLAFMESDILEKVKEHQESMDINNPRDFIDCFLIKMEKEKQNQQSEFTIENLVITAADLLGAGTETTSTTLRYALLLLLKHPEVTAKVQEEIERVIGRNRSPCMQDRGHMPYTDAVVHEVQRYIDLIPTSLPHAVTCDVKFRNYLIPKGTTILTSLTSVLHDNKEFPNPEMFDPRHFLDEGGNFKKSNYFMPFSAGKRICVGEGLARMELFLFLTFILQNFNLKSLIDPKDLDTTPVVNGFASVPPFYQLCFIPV

[19] = Selectivity ratio of LD50 for Cytotoxicity against human HEK293 cells to IC50 for Inverse agonist activity at Pseudomonas aeruginosa PqsR; format: toxicity, cell-based
[20] = Cytotoxicity against human HEK293 cells assessed as viable cells at 25 uM relative to control; format: toxicity, cell-based; conditions: read-out: Activity

Question: Which results are given for CC(C)Oc1ccc(-c2ncc(CNc3ccnc(C#N)c3)s2)cc1Cl?
Answer: IC50 [1]: 0.005 µM; IC50 [2]: 0.098 µM; half-life at 1 µM [3]: 11 min; solubility kinetic at 5 min [4]: 7 µM (≈ 2.69 µg/mL); logD [5]: 4.83; CC50 [6]: > 25 µM; half-life [7]: > 60 min; viability at 25 µM [8]: 59%; CC50 [9]: ~50 µM; viability at 50 µM [10]: 51%; IC50 [11]: 13.2 µM; fraction unbound [12]: < 0.01; fraction unbound [13]: < 0.01; IC50 [14]: > 25 µM; IC50 [15]: > 25 µM; IC50 [16]: > 25 µM; IC50 [17]: > 25 µM; IC50 [18]: 21.4 µM; selectivity ratio [19]: 10000

Question: Which IC50 [1] does the source give for CC(C)Oc1ccc(-c2ncc(CNc3ccnc(C(F)(F)F)c3)s2)cc1Cl here?
Answer: The IC50 was 0.008 µM.

Question: What about the IC50 [2] of the same compound?
Answer: The IC50 was 0.106 µM.

Question: And the half-life at 1 µM [3]?
Answer: The half-life at 1 µM was 20 min.

Question: And the solubility kinetic at 5 min [4]?
Answer: Its solubility kinetic at 5 min is 7 µM (≈ 3 µg/mL).

Question: What about the logD [5] of the same compound?
Answer: Its logD is 4.51.

Question: And the CC50 [6]?
Answer: Its CC50 is about 25 µM.

Question: What about the half-life [7] of the same compound?
Answer: Its half-life is over 60 min.

Question: What about the viability at 25 µM [8] of the same compound?
Answer: The viability at 25 µM was 49%.

Question: What about the CC50 [9] of the same compound?
Answer: Its CC50 is about 25 µM.

Question: What about the viability at 25 µM [20] of the same compound?
Answer: The viability at 25 µM was 51%.

Question: What about the IC50 [11] of the same compound?
Answer: The IC50 was over 25 µM.

Question: And the fraction unbound [12]?
Answer: The fraction unbound was under 0.01.

Question: What about the fraction unbound [13] of the same compound?
Answer: Its fraction unbound is under 0.01.

Question: What about the IC50 [14] of the same compound?
Answer: Its IC50 is over 25 µM.

Question: What about the IC50 [15] of the same compound?
Answer: The IC50 was over 25 µM.

Question: What about the IC50 [16] of the same compound?
Answer: Its IC50 is over 25 µM.

Question: And the IC50 [17]?
Answer: The IC50 was 16.4 µM.

Question: What about the IC50 [18] of the same compound?
Answer: Its IC50 is 17.1 µM.
